Three molecules from US20110183929A1, “STANDARDIZED EXTRACT AND FRACTION FROM HANCORNIA SPECIOSA LEAVES AND PHARMACEUTICAL COMPOSITION THEREOF” (priority 2008, published 2011) can be followed below.

For test [1], the target named is T1, angiotensin converting enzyme (ACE) (Oryctolagus cuniculus, UniProt P12822).
T1 sequence (P12822 34-1310): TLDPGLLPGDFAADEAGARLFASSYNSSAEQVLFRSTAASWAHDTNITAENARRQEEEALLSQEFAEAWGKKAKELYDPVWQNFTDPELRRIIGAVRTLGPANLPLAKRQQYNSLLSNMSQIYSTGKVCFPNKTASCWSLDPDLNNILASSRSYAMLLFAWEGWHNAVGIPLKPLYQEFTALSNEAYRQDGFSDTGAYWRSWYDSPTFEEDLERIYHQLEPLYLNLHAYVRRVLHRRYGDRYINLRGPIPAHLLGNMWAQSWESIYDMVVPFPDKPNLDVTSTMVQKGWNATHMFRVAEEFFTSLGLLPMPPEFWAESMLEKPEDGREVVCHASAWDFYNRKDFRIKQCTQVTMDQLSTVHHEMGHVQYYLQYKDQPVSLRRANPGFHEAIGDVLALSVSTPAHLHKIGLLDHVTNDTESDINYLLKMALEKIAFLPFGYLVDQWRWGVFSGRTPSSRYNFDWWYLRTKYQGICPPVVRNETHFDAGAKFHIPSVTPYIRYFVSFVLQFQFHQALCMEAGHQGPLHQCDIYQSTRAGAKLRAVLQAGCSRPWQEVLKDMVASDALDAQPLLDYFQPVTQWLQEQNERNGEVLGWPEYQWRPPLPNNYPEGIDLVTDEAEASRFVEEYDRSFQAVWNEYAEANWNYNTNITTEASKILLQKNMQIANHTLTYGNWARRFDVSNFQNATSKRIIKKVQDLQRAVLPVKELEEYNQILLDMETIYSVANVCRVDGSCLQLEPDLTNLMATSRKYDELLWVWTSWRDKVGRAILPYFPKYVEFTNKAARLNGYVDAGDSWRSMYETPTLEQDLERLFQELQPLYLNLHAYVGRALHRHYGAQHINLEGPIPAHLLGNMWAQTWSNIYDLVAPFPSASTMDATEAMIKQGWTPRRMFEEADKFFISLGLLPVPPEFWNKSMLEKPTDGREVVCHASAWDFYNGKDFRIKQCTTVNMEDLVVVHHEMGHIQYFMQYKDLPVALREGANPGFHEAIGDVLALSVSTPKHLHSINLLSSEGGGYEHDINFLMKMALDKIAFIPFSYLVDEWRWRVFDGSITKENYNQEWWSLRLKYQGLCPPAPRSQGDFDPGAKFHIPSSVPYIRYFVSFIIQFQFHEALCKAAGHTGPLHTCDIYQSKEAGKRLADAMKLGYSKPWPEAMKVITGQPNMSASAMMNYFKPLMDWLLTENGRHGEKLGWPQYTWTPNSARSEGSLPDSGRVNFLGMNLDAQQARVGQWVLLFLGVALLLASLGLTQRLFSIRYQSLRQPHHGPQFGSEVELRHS
In words: colorimetric ACE inhibition assay (Serra et al.). Format: biochemical. The note with it: read-out: ACE inhibiting activity IC50. An excerpt:
Despite being exhaustively referred to in ethnobotanic surveys, only few biological activities of Hancornia speciosa have been assessed. ACE inhibiting activity for ethanolic extract from the leaves of the said species has been referred to by Serra et al. (Serra, C. P.; Cortes, S. F.; Lombardi, J. A.; Braga De Oliveira, A.; Braga, F. C. Validation of a […] assay for the in vitro screening of inhibitors of angiotensin-converting enzyme (ACE) from plant extracts. Phytomedicine, v. 12, n. 6-7, 2005). These authors assessed several species of the Brazilian flora as for their ACE inhibiting potential. […] P.; Cortes, S. F.; Lombardi, J. A.; Braga De Oliveira, A.; Braga, F. C. Validation of a colorimetric assay for the in vitro screening of inhibitors of angiotensin-converting enzyme (ACE) from plant extracts. Phytomedicine, v. 12, n. 6-7, 2005), in the concentration of 0.1 mg/ml.

In test [2] the test system is normotensive mice. Nature of the test: systolic pressure in normotensive mice (caudal vessel). In kind it is in vivo. As to conditions: 1 mg/kg delivered orally.

The structures appear in SMILES notation.

By IC50 is commonly meant the point on the concentration scale where inhibition reaches its midpoint. In the case of `COC1[C@H](O)[C@H](O)C(O)[C@H](O)[C@H]1O` (stereo partly drawn) [L-(+)-bornesitol], the IC50 in test [1] came out at 41.4 ± 9.6 µM. Turning to `C[C@@H]1O[C@@H](OC[C@H]2O[C@@H](Oc3c(-c4ccc(O)c(O)c4)oc4cc(O)cc(O)c4c3=O)[C@H](O)[C@@H](O)[C@@H]2O)[C@H](O)[C@H](O)[C@H]1O` [rutin], in test [1], the IC50 was determined as 454 ± 78.4 µM. For the molecule `C[C@H](CS)C(=O)N1CCC[C@H]1C(=O)O` [Captopril], in test [2], the “systolic arterial pressure / hypotensive effect” value was “significant hypotensive effect, but of low intensity and short duration”.
